What was measured:
[1] = organism: Mus musculus; experiment: Effect on percent increase in seizure threshold was evaluated by maximal electroshock threshold (MEST) test in mouse; format: functional
[2] = test system: Rattus norvegicus; experiment: Tested for blood pressure fall on i.v. administration at a dose of 10 mg/kg infused over 30 minutes in pentobarbitone-anaesthetized hooded lister rats; format: functional; settings: route intravenous

Compound | Increase [1] | BP [2]
CC1(C)Oc2ccc(C#N)cc2[C@H](NC(=O)c2ccc(F)cc2)[C@H]1O | 41% | –
CC1(C)Oc2ccc(C#N)cc2[C@@H](NC(=O)c2ccc(F)cc2)[C@@H]1O | 17% | –
CC1(C)CC(NC(=O)c2ccc(F)cc2)c2cc(C#N)ccc2O1 (configuration not stated) | 5% | –
CC1(C)Oc2ccc(C#N)cc2[C@@H](NC(=O)c2ccc(F)cc2)[C@H]1O | 0% | 36%
CC1(C)Oc2ccc(C#N)cc2[C@H](NC(=O)c2ccc(F)cc2)[C@@H]1O | 28% | 5%
